Results on ten compounds are retold here after patent US20250290117A1, “MOLECULAR PHENOTYPIC ANTIMICROBIAL SUSCEPTIBILITY TESTING” (priority 2024, published 2025).

In one assay the test system is S. aureus. The assay is described as follows: Molecular phenotypic antimicrobial susceptibility test with direct PCR (no extraction DNA purification step). The class given is cell-based, Staphylococcus aureus. The following applies: for Ct at Sensitive Breakpoint: S. aureus isolate NR-46412 HIP13170, Ct at control (average) 18.824; for Molecular Antimicrobial Susceptibility Result: S. aureus isolate NR-46412 HIP13170, at sensitive breakpoint. The protocol:
Detection of Molecular Phenotypic Antimicrobial Susceptibility. Disclosed herein are the methods for the detection of phenotypic antimicrobial susceptibility via molecular methods. The present invention describes how a specimen 100 with a known microbial load is incubated and then exposed to a panel of antimicrobial agents to determine sensitivity (prevention of growth) or resistance (allowance of growth) to the specific antimicrobial agents tested utilizing molecular methods.
Sample Collection. Specimens 100 are collected from patients using sterile collection processes that are employed in routine clinical care. Specimens are transported to the testing facility in boric acid preservative.
Preparation of the Specimens for Testing. […] The process for pathogen isolation includes steps of harvesting the pathogen (e.g., via centrifugation), isolating pathogen DNA via a DNA isolation and/or purification kit, and performing PCR on the pathogen DNA via PCR components (e.g., primers, enzymes, buffers) as would be known to the skilled artisan. […] This aliquot is used for antimicrobial susceptibility testing if indicated based on the pathogen detection results. […] Specimens 100 with lower pathogen loads could also be utilized in the antibiotic susceptibility phase of testing with or without a longer incubation period.
Preparation of Antimicrobial Susceptibility Testing Plates. Antimicrobial solutions are prepared at known concentrations. The specific antimicrobials and their concentrations are selected based on the pathogen of interest and the described antimicrobial resistance breakpoints for that specimen pathogen and antimicrobial combination. These antimicrobials have been selected based on those commonly utilized by healthcare providers in routine clinical care for the specific type of suspected infection. The number and types of antimicrobials utilized can be customized based on the infection source, pathogen detected, patient-specific factors such as allergies or other health conditions (e.g., chronic kidney disease or concurrent medication use), or healthcare provider preferences such as antimicrobial availability or cost.
The antimicrobial solutions are prepared in liquid culture media (such as Muller Hinton Broth) to achieve the desired antimicrobial concentration and are then stored at −80° C. until use. For a given specimen, each antimicrobial is tested at a single or multiple antimicrobial concentration(s) which is its established breakpoints for sensitivity. The antimicrobial solutions are prepared and plated out for each specific pathogen. […] This allows for evaluation of pathogen load when no antimicrobial is present.
Specimen Exposure to Antimicrobial Agents. The 1 mL aliquot of the specimen 100 previously mixed with culture media and incubated is obtained. Using optical density measurements as a guide, the specimen 100 is diluted to 0.5 McFarland.
Antimicrobial exposure plates are typically placed into an incubator for 12-16 hours.
Nucleic Acid Amplification of Antimicrobial Agent Exposed Pathogens. The antimicrobial exposure plate is removed after the period of incubation. The specimen then undergoes a purification or lysis step. For example, the specimen may undergo a purification step (e.g., magnetic bead-based or other separation protocol to isolate genetic material). In another example, the specimen may undergo a cell lysis step. For example, buffer (e.g., lysis buffer) may be added and incubated in the thermal cycler for preparation for direct PCR. Next, the specimen may undergo a polymerase chain reaction (PCR) testing protocol, whereby a semi-quantitative PCR method is utilized. This may be completed either with or without a specific extraction protocol step. The pathogens can be individually targeted and detected, or a universal genetic sequence can be utilized to detect the antimicrobial susceptibility of the specimen as a whole.

For another assay, the system named is Acinetobacter baumannii. The assay is described as follows: Molecular phenotypic antimicrobial susceptibility test (extraction/DNA purification prior to PCR). The format is cell-based. On the procedure:
Detection of Molecular Phenotypic Antimicrobial Susceptibility. Disclosed herein are the methods for the detection of phenotypic antimicrobial susceptibility via molecular methods. The present invention describes how a specimen 100 with a known microbial load is incubated and then exposed to a panel of antimicrobial agents to determine sensitivity (prevention of growth) or resistance (allowance of growth) to the specific antimicrobial agents tested utilizing molecular methods. Sample Collection. Specimens 100 are collected from patients using sterile collection processes that are employed in routine clinical care. Specimens are transported to the testing facility in boric acid preservative. […] The specimens 100 are put through a pathogen identification process using PCR technology (e.g., using the first sample 104). The process for pathogen isolation includes steps of harvesting the pathogen (e.g., via centrifugation), isolating pathogen DNA via a DNA isolation and/or purification kit, and performing PCR on the pathogen DNA via PCR components (e.g., primers, enzymes, buffers) as would be known to the skilled artisan. Simultaneously, an additional aliquot of the same specimen (e.g., the second sample 108) is placed with liquid culture media and incubated for 4-6 hours. This aliquot is used for antimicrobial susceptibility testing if indicated based on the pathogen detection results. […] Specimens 100 with lower pathogen loads could also be utilized in the antibiotic susceptibility phase of testing with or without a longer incubation period. […] Antimicrobial solutions are prepared at known concentrations. The specific antimicrobials and their concentrations are selected based on the pathogen of interest and the described antimicrobial resistance breakpoints for that specimen pathogen and antimicrobial combination. These antimicrobials have been selected based on those commonly utilized by healthcare providers in routine clinical care for the specific type of suspected infection. The number and types of antimicrobials utilized can be customized based on the infection source, pathogen detected, patient-specific factors such as allergies or other health conditions (e.g., chronic kidney disease or concurrent medication use), or healthcare provider preferences such as antimicrobial availability or cost. The antimicrobial solutions are prepared in liquid culture media (such as Muller Hinton Broth) to achieve the desired antimicrobial concentration and are then stored at −80° C. until use. For a given specimen, each antimicrobial is tested at a single or multiple antimicrobial concentration(s) which is its established breakpoints for sensitivity. The antimicrobial solutions are prepared and plated out for each specific pathogen. This allows ease of use on the day of testing after defrosting the plate 112. Table 1, which illustrates the results of molecular phenotypic antimicrobial susceptibility testing when more than one organism is present in the source specimen, provides an example of an antimicrobial plate 112 prepared for this purpose. Of note, control wells containing only culture media are present on all plates 112. This allows for evaluation of pathogen load when no antimicrobial is present. Specimen Exposure to Antimicrobial Agents. The 1 mL aliquot of the specimen 100 previously mixed with culture media and incubated is obtained. Using optical density measurements as a guide, the specimen 100 is diluted to 0.5 McFarland. The specimen 100 is then placed into the previously prepared antimicrobial susceptibility testing plate 112. Each plate 112 is prepared for a single specimen 100 for a specified pathogen based on its detection. For example, if the specimen 100 has more than one pathogen detected that needs different antimicrobial concentrations for exposure due to different minimum inhibitory concentration breakpoints for one or more organisms, then more than one antimicrobial exposure plate 112 may be needed. […]

The mark [1] stands for this setting: A. baumannii isolate 1, Ct at control (average) 18.811.
[2] abbreviates: A. baumannii isolate 1, at sensitive breakpoint.
The mark [3] stands for this setting: A. baumannii isolate 2, Ct at control (average) 18.763.
[4] abbreviates: A. baumannii isolate 2, at sensitive breakpoint.
[5] abbreviates: A. baumannii isolate 3, Ct at control (average) 18.799.
Setting [6] is: A. baumannii isolate 3, at sensitive breakpoint.
The mark [7] stands for this setting: A. baumannii isolate 4, Ct at control (average) 18.061.
Where [8] appears, read: A. baumannii isolate 4, at sensitive breakpoint.
The mark [9] stands for this setting: A. baumannii isolate 5, Ct at control (average) 18.191.
The mark [10] stands for this setting: A. baumannii isolate 5, at sensitive breakpoint.

In the case of `C[C@H]1COc2c(N3CCN(C)CC3)c(F)cc3c(=O)c(C(=O)O)cn1c23` [Levofloxacin], the “Ct at Sensitive Breakpoint” value in the assay on S. aureus came to 18.264; in the assay with Acinetobacter baumannii (setting [1]), 17.268; with Acinetobacter baumannii (setting [3]), 19.405; in the assay with Acinetobacter baumannii (setting [5]), 18.253; with Acinetobacter baumannii (setting [7]) it was 18.709; with Acinetobacter baumannii (setting [9]), 19.052. The “Molecular Antimicrobial Susceptibility Result” value in the assay with S. aureus, with Acinetobacter baumannii (setting [2]), with Acinetobacter baumannii (setting [4]), in the assay with Acinetobacter baumannii (setting [6]), in the assay with Acinetobacter baumannii (setting [8]) and with Acinetobacter baumannii (setting [10]) was “Resistant” throughout.

Regarding `CN[C@H](CC(C)C)C(=O)N[C@H]1C(=O)N[C@@H](CC(N)=O)C(=O)N[C@H]2C(=O)N[C@H]3C(=O)N[C@H](C(=O)N[C@H](C(=O)O)c4cc(O)cc(O)c4-c4cc3ccc4O)[C@H](O)c3ccc(c(Cl)c3)Oc3cc2cc(c3O[C@@H]2O[C@H](CO)[C@@H](O)[C@H](O)[C@H]2O[C@H]2C[C@](C)(N)[C@H](O)[C@H](C)O2)Oc2ccc(cc2Cl)[C@H]1O` [Vancomycin], in the assay with S. aureus, the “Ct at Sensitive Breakpoint” value is listed as 17.078 and the “Molecular Antimicrobial Susceptibility Result” value is on record as “Resistant”.

In the case of `O=C1CN(/N=C/c2ccc([N+](=O)[O-])o2)C(=O)N1` [Nitrofurantoin], in the assay on S. aureus, the “Ct at Sensitive Breakpoint” value was determined as 31.922 and the “Molecular Antimicrobial Susceptibility Result” value is on record as “Sensitive (Antimicrobial wells with pathogen load detected below the control wells (typically >2 cycle thresholds later) may be reported as Sensitive)”.

As to `CO/N=C(\C(=O)N[C@@H]1C(=O)N2C(C(=O)[O-])=C(C[N+]3(C)CCCC3)CS[C@H]12)c1csc(N)n1` [Cefepime], the “Ct at Sensitive Breakpoint” value came out at 19.944 in the assay on Acinetobacter baumannii (setting [1]); 19.194 in the assay with Acinetobacter baumannii (setting [3]); 19.873 in the assay with Acinetobacter baumannii (setting [5]); 18.955 in the assay with Acinetobacter baumannii (setting [7]); 18.489 with Acinetobacter baumannii (setting [9]). Further, the “Molecular Antimicrobial Susceptibility Result” value with Acinetobacter baumannii (setting [2]) is “Resistant”; in the assay with Acinetobacter baumannii (setting [4]), “Resistant”; in the assay with Acinetobacter baumannii (setting [6]), “Sensitive (Antimicrobial wells with pathogen load detected below the control wells (typically >2 cycle thresholds later) may be reported as Sensitive)”; with Acinetobacter baumannii (setting [8]) it was “Resistant”; with Acinetobacter baumannii (setting [10]), “Resistant”.

For the compound `CO[C@@]1(NC(=O)Cc2cccs2)C(=O)N2C(C(=O)O)=C(COC(N)=O)CS[C@@H]21` [Cefoxitin], in the assay on S. aureus, the “Ct at Sensitive Breakpoint” value came to 14.322 and the “Molecular Antimicrobial Susceptibility Result” value was “Resistant”.

As for Ampicillin/Sulbactam, the “Ct at Sensitive Breakpoint” value came to 19.447 in the assay on Acinetobacter baumannii (setting [7]) and 19.682 in the assay on Acinetobacter baumannii (setting [9]). For the same compound, the “Molecular Antimicrobial Susceptibility Result” value with Acinetobacter baumannii (setting [8]) and in the assay with Acinetobacter baumannii (setting [10]) was “Sensitive (Antimicrobial wells with pathogen load detected below the control wells (typically >2 cycle thresholds later) may be reported as Sensitive)” in each case.

In the case of Piperacillin/Tazobactam, the “Ct at Sensitive Breakpoint” value in the assay with Acinetobacter baumannii (setting [1]) is 17.127; with Acinetobacter baumannii (setting [3]) it was 19.691; with Acinetobacter baumannii (setting [5]), 18.647; in the assay on Acinetobacter baumannii (setting [7]), 16.207; in the assay on Acinetobacter baumannii (setting [9]), 17.081. Further, the “Molecular Antimicrobial Susceptibility Result” value with Acinetobacter baumannii (setting [2]), with Acinetobacter baumannii (setting [4]), with Acinetobacter baumannii (setting [6]), with Acinetobacter baumannii (setting [8]) and in the assay with Acinetobacter baumannii (setting [10]) was “Resistant” in each case.

As to `CO/N=C(\C(=O)N[C@@H]1C(=O)N2C(C(=O)O)=C(CSc3nc(=O)c(=O)[nH]n3C)CS[C@H]12)c1csc(N)n1` [Ceftriaxone], the “Ct at Sensitive Breakpoint” value in the assay on Acinetobacter baumannii (setting [1]) was 16.497; in the assay on Acinetobacter baumannii (setting [3]), 19.075; in the assay with Acinetobacter baumannii (setting [5]), 19.667; in the assay on Acinetobacter baumannii (setting [7]), 18.774; in the assay on Acinetobacter baumannii (setting [9]) it was 18.571. In addition, the “Molecular Antimicrobial Susceptibility Result” value in the assay on Acinetobacter baumannii (setting [2]), in the assay with Acinetobacter baumannii (setting [4]), with Acinetobacter baumannii (setting [6]), with Acinetobacter baumannii (setting [8]) and with Acinetobacter baumannii (setting [10]) was “Resistant” throughout.

As to `CN(C)[C@@H]1C(O)=C(C(N)=O)C(=O)[C@@]2(O)C(O)=C3C(=O)c4c(O)cccc4[C@@](C)(O)[C@H]3C[C@@H]12` [Tetracycline], in the assay on S. aureus, the “Ct at Sensitive Breakpoint” value amounted to 18.43 and the “Molecular Antimicrobial Susceptibility Result” value was “Resistant”.

As for `C[C@@H](O)[C@H]1C(=O)N2C(C(=O)O)=C(S[C@@H]3CN[C@H](C(=O)N(C)C)C3)[C@H](C)[C@H]12` [Meropenem], the “Ct at Sensitive Breakpoint” value came to 18.123 with Acinetobacter baumannii (setting [1]); 19.761 with Acinetobacter baumannii (setting [3]); 18.077 in the assay with Acinetobacter baumannii (setting [5]); 17.553 in the assay on Acinetobacter baumannii (setting [7]); 20.173 in the assay with Acinetobacter baumannii (setting [9]). Moreover, the “Molecular Antimicrobial Susceptibility Result” value with Acinetobacter baumannii (setting [2]), in the assay on Acinetobacter baumannii (setting [4]), in the assay with Acinetobacter baumannii (setting [6]), with Acinetobacter baumannii (setting [8]) and in the assay with Acinetobacter baumannii (setting [10]) was “Resistant” throughout.
